US8653271B2 (priority 2006, dated 2014)
Several values for one entry are separate records, joined by “and”; a condition that tells them apart may be missing. Identical values can stand only once.

Columns and labels:
[1] = human skin; for Mean permeability coefficient (KP × 10^3): from steady-state flux and donor solubility; for Flux from mineral oil: saturated solution in light mineral oil, 32° C., 48 h, codrug in 6-β-naltrexol equivalents
Procedure: Human skin harvested during abdominal reduction surgery was used for the diffusion studies. Skin sections were obtained by using a Padgett dermatome set to 250 μm; these sections were stored at −20° C. Stored skin samples were thawed to room temperature at the time of the experiment. A PermeGear flow-through (In-Line, Riegelsville, Pa., USA) diffusion cell system was used for the skin permeation studies. Skin surface temperature was maintained at 32° C. with a circulating water bath. Data was collected by using human skin from a single donor with three cells of 6-β-naltrexol and four cells CB-NTXOL-BUPOH. Because of normal human skin inter-subject permeation variability, the codrug was compared against 6-β-naltrexol permeation within each individual skin sample. These studies were repeated three times with skin from different human subject donors. The receiver solution was HEPES-buffered Hanks' balanced salt solution pH 7.4 set at a flow rate of 1.1 ml/h. […] A saturated solution of 6-β-naltrexol or CB-NTXOL-BUPOH in light mineral oil was applied to the skin in order to maintain a maximum and constant thermodynamic activity of the drug. Each cell was charged with 0.25 ml of the respective drug solution. […] All samples were immediately processed by solid phase extraction, evaporated under nitrogen, reconstituted, and analyzed for drug content by HPLC. The human tissue use was approved by the University of Kentucky Institutional Review Board.
Cumulative quantity of drug collected in the receiver compartment was plotted as a function of time. The flux value for a given experiment was obtained from the slope of the steady-state portion of the cumulative amount of drug permeated vs. time plot. Apparent permeability coefficient values were computed from Fick's First Law of diffusion:
Sink conditions were maintained in the receiver throughout the experiment, so ΔC was approximated by the drug concentration (solubility in this case) in the donor compartment.
The skin tissue was rinsed with filtered water and blotted with a paper towel. The tissue was tape-stripped twice to remove surface formulation. The area of skin with drug contact was cut out, chopped into tiny pieces, and placed in a pre-weighed vial. The vial was weighed to calculate the mass of the skin. Ten milliliters of acetonitrile was added to each vial, the vials vortexed, sonicated for 10 min, and placed in a shaker overnight. The following day, a 1 ml sample was obtained from the vials and placed in autosampler vials for analysis. […] Flux values and skin concentrations for each of the drugs were reported as mean±S.D and were statistically compared using a paired Student's t-test. Flux enhancement as well as drug disposition in the skin were considered significant at p<0.05.

[2] = Predicting plasma concentrations from in vitro permeation studies; conditions: for plasma level predicted with 5.6-fold guinea pig/human skin factor: 6-β-naltrexol equivalents; for Predicted CSS of 6-β-naltrexol: Predicted from in vitro human skin diffusion data
Description: To predict the plasma concentration of 6-β-naltrexol after application of the gel formulation containing either the codrug or the control formulation, the following equation was used: […]
where CSS is the predicted steady state plasma concentration (ng/ml); JSS is the steady-state flux from in vitro permeation in Table 4 from previous studies; A is the area of the skin in contact with the formulation (14.5 cm^2); Cl is the total body clearance. […] Guinea pig skin is often more permeable than human skin, especially when the stratum corneum is the major rate-limiting step in the absorption process.

physchem = assay type: physicochemical; conditions: for Light mineral oil solubility: 32° C., 48 h equilibration (Table 3); for Hanks' buffer solubility: pH 7.4, 32° C., 30 min sonication
Procedure: The solubilities of CB-NTXOL-BUPOH, hydroxybupropion, and 6-β-naltrexol were determined by adding excess quantity of drug to mineral oil or pre-warmed HEPES-buffered Hanks' salt solution pH 7.4 at 32° C. (skin surface temperature), with equilibration while shaking in a water bath at 60 rpm. Weighing 4 mg of each of the drugs and placing them in 1 ml of each of the respective solvents was enough to ensure that there was excess drug in solution. Samples were drawn into a pre-warmed glass syringe, filtered through a syringe filter (Mineral oil: Millex FG-13, Millipore, Billerica, Mass., USA, and buffer: nylon filter, Gelman, East Hills, N.Y., USA), and measured with respect to volume and diluted with an appropriate volume of acetonitrile or buffer. The drug from the buffer samples was immediately extracted by solid phase extraction as described above. Drugs in mineral oil were diluted with a hundred-fold volume of acetonitrile and extraction recoveries were >95% for all the drugs. The sampling procedure was done in triplicate, discarding the first 40% of the initial filtrate. […]. For buffer solubilities, samples were taken after 30 min of sonication (to minimize the hydrolysis of the codrug). No significant difference was found between 30 min sonication solubility measurements and equilibrium solubility measurements taken after 48 h for 6-β-naltrexol.

[3] = Permeation studies in guinea pigs in vivo (topical gel, plasma pharmacokinetics); design: species or system hairless guinea pigs; conditions: for Enhancement factor (delivery of 6-β-naltrexol in vivo): codrug gel versus 6-β-naltrexol base gel, guinea pigs; for intact codrug in guinea pig plasma after topical application: in vivo plasma samples; for Tlag of 6-β-naltrexol: lag time to steady-state; for Tlag of 6-β-naltrexol / AUC0-48 of 6-β-naltrexol / Cmax of 6-β-naltrexol / Tmax of 6-β-naltrexol / Observed CSS of 6-β-naltrexol: topical gel; for Tlag of 6-β-naltrexol / Cmax of 6-β-naltrexol / Tmax of 6-β-naltrexol / Observed CSS of 6-β-naltrexol: hairless guinea pigs; for AUC0-48 of 6-β-naltrexol / Cmax of 6-β-naltrexol / Tmax of 6-β-naltrexol: plasma; for AUC0-48 of 6-β-naltrexol: 14.5 cm^2, hairless guinea pigs; for Observed CSS of 6-β-naltrexol: steady-state plasma concentration, 48 h
Procedure: A hydroxyethyl cellulose-based gel was prepared for topical application. First, either CB-NTXOL-BUPOH or 6-β-naltrexol (˜25 mg each) was dissolved in 1 ml of PG:buffer, pH 7.4 (2:3, v/v) solution using a magnetic stirrer. Hydroxyethyl cellulose (2%, w/w) was dispersed into these mixtures, sonicated, vortexed, and allowed to form a gel at room temperature. The drug in each formulation was saturated, forming a suspension.
Male and female Hairless IAF and Hartley guinea pigs (Charles River) weighing 345-482 g were used for topical studies (n=5 to 6 per treatment group). Prior to surgery, the animals were treated with glycopyrrolate and buprenorphine (to induce analgesia), and then ketamine (100 mg/kg, i.p.) and xylazine (8 mg/kg, i.m.) were used for anesthetic purposes. Catheters were surgically implanted into the jugular vein. A “blank” baseline plasma sample was drawn from each animal immediately before drug treatment. 500 μL of the gel containing the drug was applied onto the dorsal region of the guinea pig with a syringe and subsequently spread to cover an area of 7.25 cm^2. A rubber ring fitted with a drug-impermeable backing laminate (MEDIFLEX® 1502) was used to enclose the area of gel application. ARcare® acrylic adhesive was used to ensure that the ring maintained contact with the skin. Additionally, a bio-occlusive tape was placed over the patches to further secure the formulation on the guinea pigs. Drug formulations were applied on both sides of each guinea pig to give a total application area of 14.5 cm^2. Plasma samples were obtained at predetermined time intervals, which included 48 h while the formulations were on the animal, and for another 48 h after patches and formulations were removed. Blood samples were immediately centrifuged at 10,000×g for 3 min, and the plasma was separated. Plasma samples were stored at −70° C. until analysis by liquid chromatographic mass spectrometry, LC-MS.
Topical administration data were analyzed by non-compartmental analysis to determine mean steady-state plasma concentration (CSS), lag time to steady-state (tlag), and area under the curve from 0 to 48 h, AUC0-48.

[4] = cumulative 6-β-naltrexol equivalents permeated

Row | SMILES | Mean permeability coefficient (KP × 10^3) [1] | Flux from mineral oil [1] | plasma level predicted with 5.6-fold guinea pig/human skin factor [2] | Light mineral oil solubility (physchem) | Hanks' buffer solubility (physchem) | Enhancement factor (delivery of 6-β-naltrexol in vivo) [3] | Tlag of 6-β-naltrexol [3] | AUC0-48 of 6-β-naltrexol [3] | Cmax of 6-β-naltrexol [3] | Tmax of 6-β-naltrexol [3] | further results
1 | Cc1c(-c2cccc(Cl)c2)oc(=O)n1C(C)(C)COC(=O)Oc1ccc2c3c1OC1C(O)CCC4(O)C(C2)N(CC2CC2)CCC314 (stereo not shown) [Compound 26] | 0.47 cm/h | 1.34 nmol cm^−2 h^−1 | 3.9 ng/mL | 2880 µM | 530 µM | five-fold | 5.0 ± 1.1 h | 282.0 ± 14.5 ng·h/mL | 6.6 ± 0.4 ng/mL | 10.1 ± 0.9 h | share of 6-β-naltrexol flux from intact CB-NTXOL-BUPOH [1, 4]: approximately 35%; share of 6-β-naltrexol flux originating from skin hydrolysis of codrug [1, 4]: 65%; Predicted CSS of 6-β-naltrexol ([2]; listed as CB-NTXOL-BUPOH): 0.7 ± 0.3 ng/mL; intact codrug in guinea pig plasma after topical application ([3]; listed as CB-NTXOL-BUPOH): only trace amounts of intact codrug; intact codrug in guinea pig plasma after topical application ([3]; listed as codrug): Only trace amounts; Observed CSS of 6-β-naltrexol ([3]; listed as CB-NTXOL-BUPOH): 6.4 ng/mL and 6.4 ± 0.9 ng/mL; Observed CSS of 6-β-naltrexol ([3]; listed as codrug): 6.40 ± 0.93 ng/mL
2 | Oc1ccc2c3c1O[C@H]1[C@H](O)CC[C@@]4(O)[C@@H](C2)N(CC2CC2)CC[C@]314 [Compound 2, 6-β-naltrexol] | 12.00 cm/h | 0.36 nmol cm^−2 h^−1 | 1.1 ng/mL | 30 µM | 300 µM | 1 | 5.1 ± 0.7 h | 66.4 ± 7.9 ng·h/mL | 1.5 ± 0.2 ng/mL | 28.1 ± 1.5 h | Predicted CSS of 6-β-naltrexol [2]: 0.2 ± 0.1 ng/mL; Predicted CSS of 6-β-naltrexol ([2]; listed as NTXOL): 0.2 ± 0.1 ng/mL; Observed CSS of 6-β-naltrexol [3]: 1.25 ± 0.51 ng/mL and 1.2 ng/mL; Observed CSS of 6-β-naltrexol ([3]; listed as NTXOL): 1.2 ± 0.5 ng/mL
